Patent publication US20020045638A1, “Method of treating estrogen receptor positive carcinoma” (priority 2000, published 2002)

Experiments:
[1] = tested on: MCF-7 tumors; assay: Growth of MCF-7 breast carcinoma implanted in nude mice; assay type: in vivo; conditions: for Tumor size (mean ± standard error): 20 mg/kg ERA-923 PO qd days 1-35
Procedure: In the third standard pharmacological test procedure, mice implanted with MCF-7 tumors were treated with a combination of ERA-923 and CCI-779. […] ERA-923 was dissolved in 1% Tween 80 and 0.9% NaCl Injection USP. Drug was aliquoted into daily doses using 10.0 ml glass bottles and frozen at −20° C. until needed. CCI-779 was made fresh using a 5% ETOH, 4.9% Phosal and 0.1% Tween 80 in Sterile Water. 0.2 ml of each drug was given orally starting the day after tumor implantation. ERA 923 was given daily for the duration of the experiment and CCI-779 was given every other day for the first 10 days. The control vehicles were given on the same regime as the drugs. MCF7 cells were cultured in IMEM containing 5% Fetal Bovine Serum with passages varying from 2-20. After trypsinization tumors were resuspended in IMEM with 2% Serum at a 1:1 ratio with Matrigel. 10 million cells were injected subcutaneously into the mammary tissue of each mouse using a 1.0 ml tuberculin syringe with a 23 3/4 gauge needle. Five to six week old female ovariectomized athymic nu/nu mice (Charles River Labs: Wilmington, Mass.) weighing from 20.0-23.0 g were used. The animals were housed 5 to a cage in a Microisolator Open Rack System (Lab Products: Maywood, N.J.). Each mouse received a 17β-Estradiol pellet (0.72 mg/pellet-60 day release). The pellets were injected with a 10 gauge trochar into the lateral side of the neck between the ear and the shoulder 1-2 weeks prior to tumor injection. Control groups were 15 mice/vehicle whereas the drug groups were 10 mice/drug. Tumors were measured weekly by means of solar calipers (Cole-Parmer Instuments: Vernon Hills, Ill.) and tumor weights were estimated from tumor diameters by the following formula:
Tumor weight (mg)=tumor length (mm)×tumor width (mm)^2/2.
Mice were euthanized 36 days after tumor injection by CO2 inhalation. […] Nude mice bearing MCF-7 tumors were given ERA-923, CCI-779 or the combination of both drugs.

[2] = tested on: MCF-7 human breast cancer cells; assay: Inhibition of growth of MCF-7 breast cancer cells (MTT), with MacSynergy II synergy analysis;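 note: cells treated five or six days with single agents or combinations, growth read by MTT, synergy surface equals observed % inhibition minus Bliss additive prediction, values under 0% signal antagonism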
Procedure: MCF-7 human breast cancer cells were maintained at 37° C. in a humidified atmosphere of 5% CO2 and 95% air in IMEM medium supplemented with 10% fetal bovine serum. […] One day before the experiment, cells were plated in 96-well plates at a cell density of 2,500 cells/well in IMEM medium supplemented with 10% fetal bovine serum. The next day, cells were treated with various concentrations of antiestrogen and rapamycin 42-ester with 3-hydroxy-2-(hydroxymethyl)-2-methylpropionic acid (referred to as CCI-779 in the tables below). Five or six-days later, cell growth was monitored. MTT solution (20 ul) (0.5 mg/ml) was added to each well and cells were incubated for an additional 4 h. The solution was then removed and 150 ul of DMSO added. The intensity of dark blue color corresponding to number of cells was read at 540 nm with an automated plate reader.
Briefly, theoretical additive interactions were calculated from the dose-response curves of each individual drug based on Bliss independence model. The calculated additive surface was then subtracted from the experimental surface to obtain a synergy surface representing % inhibition above the calculated additive value-synergy index. […] Likewise, any peak below the 0% plane is indicative of antagonism.

[3] = tested on: BG-1 human ovarian cancer cells; assay: Inhibition of growth of BG-1 ovarian cancer cells (MTT), with MacSynergy II synergy analysis; assay type: cell-based; conditions: for Percent Inhibition: Table G, CCI-779 0 nM
Procedure: In these test procedures, rapamycin 42-ester with 3-hydroxy-2-(hydroxymethyl)-2-methylpropionic acid was used as a representative rapamycin, and 2-(4-hydroxy-phenyl)-3-methyl-1-[4-(2-piperdin-1-yl-ethoxy)-benzyl-1 H-indol-5-ol, raloxifene, and 4-hydroxytamoxifen were used as representative antiestrogens.
One day before the experiment, cells were plated in 96-well plates at a cell density of 2,500 cells/well in IMEM medium supplemented with 10% fetal bovine serum. The next day, cells were treated with various concentrations of antiestrogen and rapamycin 42-ester with 3-hydroxy-2-(hydroxymethyl)-2-methylpropionic acid (referred to as CCI-779 in the tables below). Five or six-days later, cell growth was monitored.

[4] = MCF-7, antiestrogen in combination with CCI-779, MacSynergy II, Bliss independence model
[5] = BG-1, antiestrogen in combination with CCI-779, MacSynergy II, Bliss independence model

For Cc1c(-c2ccc(O)cc2)n(Cc2ccc(OCCN3CCCCC3)cc2)c2ccc(O)cc12 [ERA-923], the “Tumor size (mean ± standard error)” value ([1]; day 14 after tumor implantation) was 480 ± 91 mg, the “Tumor size (mean ± standard error)” value ([1]; day 21 after tumor implantation) was 679 ± 127 mg and the “Tumor size (mean ± standard error)” value ([1]; day 28 after tumor implantation) was 842 ± 163 mg. The “Tumor size (mean ± standard error)” value ([1]; day 36 after tumor implantation) was 993 ± 197 mg, the “inhibition of tumor growth” value ([1]; nude mice bearing MCF-7 tumors, growth inhibition=experimental value−200 (baseline)/control value −200) was “approximately 35%” and the “increase of growth-inhibitory effect as estimated by the IC50” value ([2]; ERA-923 in the presence of non-inhibitory concentrations of CCI-779) was “approximately 10 fold”. For the same compound, the Antagonsim [2, 4] was 0.0 μM^2%, the Synergy [2, 4] was 138.0 μM^2% and the “Percent Inhibition” value ([2]; Table A, CCI-779 0 nM, ERA-923 0.25 nM) was 9%. The “Percent Inhibition” value ([2]; Table A, CCI-779 0 nM, ERA-923 0.5 nM) was 7.59%, the “Percent Inhibition” value ([2]; Table A, CCI-779 0 nM, ERA-923 1 nM) was 37.56% and the “Percent Inhibition” value ([2]; Table A, CCI-779 0 nM, ERA-923 2 nM) was 54.65%. For the same compound, the “Percent Inhibition” value ([2]; Table A, CCI-779 0 nM, ERA-923 3 nM) was 59.39%, the “Percent Inhibition” value ([2]; Table A, CCI-779 0 nM, ERA-923 4 nM) was 60.04% and the “Percent Inhibition” value ([2]; Table A, CCI-779 0 nM, ERA-923 5 nM) was 61.12%. The “Percent Inhibition” value ([2]; Table D, ERA-923 0 nM + ERA-923 0.25 nM) was −0.78%, the “Percent Inhibition” value ([2]; Table D, ERA-923 0 nM + ERA-923 0.5 nM) was 26.09% and the “Percent Inhibition” value ([2]; Table D, ERA-923 0 nM + ERA-923 1 nM) was 54.91%. The “Percent Inhibition” value ([2]; Table D, ERA-923 0 nM + ERA-923 2 nM) was 71.82%, the “Percent Inhibition” value ([2]; Table D, ERA-923 0 nM + ERA-923 3 nM) was 87.65% and the “Percent Inhibition” value ([2]; Table D, ERA-923 0 nM + ERA-923 4 nM) was 78.72%. For the same compound, the “Percent Inhibition” value ([2]; Table D, ERA-923 0 nM + ERA-923 5 nM) was 79.25%, the “Percent Inhibition” value ([2]; Table D, ERA-923 0.25 nM + ERA-923 0 nM) was 6.69% and the “Percent Inhibition” value ([2]; Table D, ERA-923 0.25 nM + ERA-923 0.25 nM) was 35.93%. For the same compound, the “Percent Inhibition” value ([2]; Table D, ERA-923 0.25 nM + ERA-923 0.5 nM) was 56.79%, the “Percent Inhibition” value ([2]; Table D, ERA-923 0.25 nM + ERA-923 1 nM) was 64.27% and the “Percent Inhibition” value ([2]; Table D, ERA-923 0.25 nM + ERA-923 2 nM) was 76.33%. The “Percent Inhibition” value ([2]; Table D, ERA-923 0.25 nM + ERA-923 3 nM) was 78.99%, the “Percent Inhibition” value ([2]; Table D, ERA-923 0.25 nM + ERA-923 4 nM) was 78.39% and the “Percent Inhibition” value ([2]; Table D, ERA-923 0.25 nM + ERA-923 5 nM) was 79.68%. The “Percent Inhibition” value ([2]; Table D, ERA-923 0.5 nM + ERA-923 0 nM) was 8.17%, the “Percent Inhibition” value ([2]; Table D, ERA-923 0.5 nM + ERA-923 0.25 nM) was 53.61% and the “Percent Inhibition” value ([2]; Table D, ERA-923 0.5 nM + ERA-923 0.5 nM) was 63.08%. The “Percent Inhibition” value ([2]; Table D, ERA-923 0.5 nM + ERA-923 1 nM) was 68.58%, the “Percent Inhibition” value ([2]; Table D, ERA-923 0.5 nM + ERA-923 2 nM) was 73.71% and the “Percent Inhibition” value ([2]; Table D, ERA-923 0.5 nM + ERA-923 3 nM) was 81.21%. For the same compound, the “Percent Inhibition” value ([2]; Table D, ERA-923 0.5 nM + ERA-923 4 nM) was 79.57%, the “Percent Inhibition” value ([2]; Table D, ERA-923 0.5 nM + ERA-923 5 nM) was 81.43% and the “Percent Inhibition” value ([2]; Table D, ERA-923 1 nM + ERA-923 0 nM) was 42.1%. For the same compound, the “Percent Inhibition” value ([2]; Table D, ERA-923 1 nM + ERA-923 0.25 nM) was 66.83%, the “Percent Inhibition” value ([2]; Table D, ERA-923 1 nM + ERA-923 0.5 nM) was 75.09% and the “Percent Inhibition” value ([2]; Table D, ERA-923 1 nM + ERA-923 1 nM) was 74.24%. For the same compound, the “Percent Inhibition” value ([2]; Table D, ERA-923 1 nM + ERA-923 2 nM) was 74.07%, the “Percent Inhibition” value ([2]; Table D, ERA-923 1 nM + ERA-923 3 nM) was 76.56% and the “Percent Inhibition” value ([2]; Table D, ERA-923 1 nM + ERA-923 4 nM) was 80.45%. The “Percent Inhibition” value ([2]; Table D, ERA-923 1 nM + ERA-923 5 nM) was 82.97%, the “Percent Inhibition” value ([2]; Table D, ERA-923 2 nM + ERA-923 0 nM) was 67.81% and the “Percent Inhibition” value ([2]; Table D, ERA-923 2 nM + ERA-923 0.25 nM) was 74.73%. For the same compound, the “Percent Inhibition” value ([2]; Table D, ERA-923 2 nM + ERA-923 0.5 nM) was 75.08%, the “Percent Inhibition” value ([2]; Table D, ERA-923 2 nM + ERA-923 1 nM) was 75.36% and the “Percent Inhibition” value ([2]; Table D, ERA-923 2 nM + ERA-923 2 nM) was 75.03%. The “Percent Inhibition” value ([2]; Table D, ERA-923 2 nM + ERA-923 3 nM) was 78.5%, the “Percent Inhibition” value ([2]; Table D, ERA-923 2 nM + ERA-923 4 nM) was 81.23% and the “Percent Inhibition” value ([2]; Table D, ERA-923 2 nM + ERA-923 5 nM) was 82.02%. For the same compound, the “Percent Inhibition” value ([2]; Table D, ERA-923 3 nM + ERA-923 0 nM) was 52.23%, the “Percent Inhibition” value ([2]; Table D, ERA-923 3 nM + ERA-923 0.25 nM) was 75.24% and the “Percent Inhibition” value ([2]; Table D, ERA-923 3 nM + ERA-923 0.5 nM) was 76.06%. For the same compound, the “Percent Inhibition” value ([2]; Table D, ERA-923 3 nM + ERA-923 1 nM) was 77.68%, the “Percent Inhibition” value ([2]; Table D, ERA-923 3 nM + ERA-923 2 nM) was 76.67% and the “Percent Inhibition” value ([2]; Table D, ERA-923 3 nM + ERA-923 3 nM) was 81.51%. The “Percent Inhibition” value ([2]; Table D, ERA-923 3 nM + ERA-923 4 nM) was 83.2%, the “Percent Inhibition” value ([2]; Table D, ERA-923 3 nM + ERA-923 5 nM) was 82.87% and the “Percent Inhibition” value ([2]; Table D, ERA-923 4 nM + ERA-923 0 nM) was 74.49%. The “Percent Inhibition” value ([2]; Table D, ERA-923 4 nM + ERA-923 0.25 nM) was 79.39%, the “Percent Inhibition” value ([2]; Table D, ERA-923 4 nM + ERA-923 0.5 nM) was 80.92% and the “Percent Inhibition” value ([2]; Table D, ERA-923 4 nM + ERA-923 1 nM) was 77.2%. The “Percent Inhibition” value ([2]; Table D, ERA-923 4 nM + ERA-923 2 nM) was 78.2%, the “Percent Inhibition” value ([2]; Table D, ERA-923 4 nM + ERA-923 3 nM) was 79.28% and the “Percent Inhibition” value ([2]; Table D, ERA-923 4 nM + ERA-923 4 nM) was 83.28%. For the same compound, the “Percent Inhibition” value ([2]; Table D, ERA-923 4 nM + ERA-923 5 nM) was 85.92%, the Antagonsim [3, 5] was 0.0 μM^2% and the Synergy [3, 5] was 25.9 μM^2%. The “Percent Inhibition” value ([3]; ERA-923 0.25 nM) was 14.72%, the “Percent Inhibition” value ([3]; ERA-923 0.5 nM) was 24.14% and the “Percent Inhibition” value ([3]; ERA-923 1 nM) was 48.93%. For the same compound, the “Percent Inhibition” value ([3]; ERA-923 2 nM) was 57.19%, the “Percent Inhibition” value ([3]; ERA-923 3 nM) was 72.54% and the “Percent Inhibition” value ([3]; ERA-923 4 nM) was 80.34%. The “Percent Inhibition” value ([3]; ERA-923 5 nM) was 75.94%.
